For this series, the system named is CCRIS mutagenicity, Ames/micronucleus/aberration tests. The series can be described thus: CCRIS mutagenicity studies.

Activity calls are given as the source filed them. How the calls were made is not given here.

Take `Oc1ccc(O)cc1`: the mutagenic call runs as follows: (End Point: IN VITRO CHROMOSOMAL ABERRATIONS, Test System: CHINESE HAMSTER OVARY CELLS, Metabolic Activation: NONE) “inactive; negative”; (End Point: IN VITRO CHROMOSOMAL ABERRATIONS, Test System: CHINESE HAMSTER OVARY CELLS, Metabolic Activation: RAT, LIVER, S-9, AROCLOR 1254) “active; positive”; (End Point: IN VITRO CHROMOSOMAL ABERRATIONS, Test System: CHINESE HAMSTER V79 CELLS, Metabolic Activation: NONE) “active; positive; effective at higher doses at ph 7.4”; (End Point: IN VITRO CHROMOSOMAL ABERRATIONS, Test System: CHL/IU CELLS, Metabolic Activation: NONE) “active; positive (structural changes)”; (End Point: IN VITRO CHROMOSOMAL ABERRATIONS, Test System: HUMAN (MALE) PERIPHERAL BLOOD LYMPHOCYTES, Metabolic Activation: NONE) “inactive; negative”; (End Point: IN VITRO CHROMOSOMAL ABERRATIONS, Test System: HUMAN (MALE) PERIPHERAL BLOOD LYMPHOCYTES, Metabolic Activation: RAT, LIVER, S-9, AROCLOR 1254) “inactive; negative”. Also, the mutagenic call is, setting by setting: (End Point: IN VITRO CHROMOSOMAL ABERRATIONS, Test System: HUMAN PERIPHERAL LYMPHOCYTES, Metabolic Activation: NONE) “active; positive (ploidy)”; (End Point: IN VITRO CHROMOSOMAL ABERRATIONS, Test System: HUMAN PERIPHERAL LYMPHOCYTES, Metabolic Activation: NONE, Method: FISH) “active; positive (ploidy); greater effects on certain chromosomes”; (End Point: IN VITRO CHROMOSOMAL ABERRATIONS, Test System: HUMAN PERIPHERAL LYMPHOCYTES, Metabolic Activation: NONE, Method: FISH - DUAL COLOR PROBES) “active; positive (structural and ploidy changes)”; (End Point: IN VITRO CHROMOSOMAL ABERRATIONS, Test System: HUMAN PERIPHERAL LYMPHOCYTES, Metabolic Activation: NONE, Method: FISH - SINGLE COLOR) “active; positive (ploidy)”; (End Point: IN VITRO CHROMOSOMAL ABERRATIONS, Test System: HUMAN PERIPHERAL LYMPHOCYTES, Metabolic Activation: NONE, Method: FISH- DUAL COLOR PROBES) “inactive; negative for translocations”; (End Point: IN VITRO CHROMOSOMAL ABERRATIONS, Test System: V79, Metabolic Activation: RAT, LIVER, S-9, AROCLOR 1254) “active; positive; effective at higher doses at ph 7.4”. Further, the mutagenic call was “active; positive” (End Point: IN VITRO MICRONUCLEUS, Test System: CHL/IU CELLS, Metabolic Activation: NONE); “active; positive” (End Point: IN VITRO MICRONUCLEUS, Test System: HAMSTER V79 CELLS, Metabolic Activation: NONE); “active; positive; individuals with gstm1 null genotype more affected than those with gst” (End Point: IN VITRO MICRONUCLEUS, Test System: HUMAN LYMPHOCYTES, Metabolic Activation: NONE); “active; positive (structural changes and ploidy). toxic at 0.12 mg/ml” (End Point: In vitro chromosomal aberrations, Test System: Chinese hamster lung (CHL/IU) cells, Metabolic Activation: Rat, Liver, S9, Phenobarbital and 5,6-benzoflavone); “inactive; negative” (Test System: AMES SALMONELLA TYPHIMURIUM, Strain/Indicator: TA97, Metabolic Activation: NONE, Method: STANDARD PLATE); “inactive; negative” (Test System: AMES SALMONELLA TYPHIMURIUM, Strain/Indicator: TA97, Metabolic Activation: RAT, LIVER, S-9, PCB, Method: STANDARD PLATE). Moreover, the mutagenic call is, setting by setting: (Test System: AMES SALMONELLA TYPHIMURIUM, Strain/Indicator: TA97, Metabolic Activation: RAT, LIVER, S-9, PHENOBARBITAL, Method: PREINCUBATION) “active; positive”; (Test System: AMES SALMONELLA TYPHIMURIUM, Strain/Indicator: TA98, Metabolic Activation: NONE, Method: PREINCUBATION) “active; positive”; (Test System: AMES SALMONELLA TYPHIMURIUM, Strain/Indicator: TA98, Metabolic Activation: NONE, Method: STANDARD PLATE) “inactive; negative”; (Test System: AMES SALMONELLA TYPHIMURIUM, Strain/Indicator: TA98, Metabolic Activation: RAT, LIVER, S-9, PCB, Method: STANDARD PLATE) “inactive; negative”; (Test System: AMES SALMONELLA TYPHIMURIUM, Strain/Indicator: TA98, Metabolic Activation: RAT, LIVER, S-9, PHENOBARBITAL, Method: PREINCUBATION) “active; positive”; (Test System: AMES SALMONELLA TYPHIMURIUM, Strain/Indicator: TA100, Metabolic Activation: NONE, Method: PREINCUBATION) “active; positive”. The mutagenic call is “inactive; negative” (Test System: AMES SALMONELLA TYPHIMURIUM, Strain/Indicator: TA100, Metabolic Activation: NONE, Method: STANDARD PLATE); “inactive; negative” (Test System: AMES SALMONELLA TYPHIMURIUM, Strain/Indicator: TA100, Metabolic Activation: RAT, LIVER, S-9, PCB, Method: STANDARD PLATE); “active; positive” (Test System: AMES SALMONELLA TYPHIMURIUM, Strain/Indicator: TA100, Metabolic Activation: RAT, LIVER, S-9, PHENOBARBITAL, Method: PREINCUBATION); “active; positive” (Test System: AMES SALMONELLA TYPHIMURIUM, Strain/Indicator: TA102, Metabolic Activation: NONE, Method: STANDARD PLATE); “active; positive” (Test System: AMES SALMONELLA TYPHIMURIUM, Strain/Indicator: TA104, Metabolic Activation: NONE, Method: PREINCUBATION); “active; positive” (Test System: UDS SHE CELLS, Strain/Indicator: THY INCORP, Metabolic Activation: NONE, Method: LIQUID SCINTILLATION COUNTING).
Take `Cc1c2ccccc2c(CCl)c2ccccc12`: the mutagenic call (Test System: AMES SALMONELLA TYPHIMURIUM, Strain/Indicator: TA1537, Metabolic Activation: NONE, Method: STANDARD PLATE) is “active; positive”.

These data come from PubChem BioAssay AID1259407 (Chemical Carcinogenesis Research Information System (CCRIS), 2018).
